What all share (assay): DTP human tumour cell line panel, 48 h
For assay [1], the system named is NCI-H522 lung.
The test system of assay [2] is NCI-H23 lung.
For assay [3], the system named is OVCAR-8 ovarian.
Assay [4] concerns LOX IMVI melanoma.
Assay [5] deals with OVCAR-5 ovarian.
Assay [6] concerns OVCAR-3 ovarian.
Assay [7] has as its system EKVX NSCLC.
The subject of assay [8] is NCI-H460 lung.
The subject of assay [9] is HCT-116 colon.
For assay [10], the system named is UACC-257 melanoma.

The structures appear in SMILES notation.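 Compound exposure: 48 hours, 5 concentrations, 96-well plates. GI50 is the concentration that inhibits growth by half. TGI marks complete inhibition of growth.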

Consider `COC(=O)Nc1nc2ccc(Sc3ccccc3)cc2[nH]1`, for which the GI50 was 0.113 µM in assay [1]; 0.29 µM in assay [2]; 0.298 µM in [3]; 0.487 µM in assay [4]; 0.511 µM in assay [5]; 0.123 µM in assay [6]. In addition, the GI50 was 1.64 µM in assay [7], 0.247 µM in [8], 0.0771 µM in assay [9] and 3.08 µM in [10]. Besides, the TGI in assay [1] came to 0.587 µM; in [2] it was 31 µM; in assay [3], 3.99 µM; in assay [4], 17.2 µM; in [5], 23.4 µM; in assay [6], 0.421 µM. The total growth inhibition concentration (TGI) is 53.6 µM in [7], 11.6 µM in [8], 10.1 µM in assay [9] and over 66.8 µM in assay [10].

Regarding `Cc1cc2nc3c4ccccc4n(CCN(C)C)c3nc2cc1C`, the GI50 is 0.673 µM in assay [1]; 1.87 µM in assay [2]; 1.16 µM in assay [3]; 0.748 µM in [4]; 2.1 µM in [5]; 1.91 µM in assay [6]. For the same molecule, the GI50 in [7] is 2.23 µM; in assay [8], 0.709 µM; in [9] it was 0.488 µM; in [10], 1.94 µM. Besides, the TGI in assay [1] amounted to 3.24 µM; in assay [2], 5.7 µM; in assay [3], 12.4 µM; in [4], 3.68 µM; in assay [5], 6.45 µM; in assay [6], 7.28 µM. Besides, the TGI in assay [7] amounted to 7.32 µM; in assay [8], 9.1 µM; in [9], 11.3 µM; in [10], 5.16 µM.

Turning to `O=C1c2ccccc2C(=O)c2sc(Nc3ccc(Cl)c(Cl)c3)nc21`, the TGI was 4.66 µM in assay [1]; 10.5 µM in assay [2]; 8.02 µM in assay [3]; 4.73 µM in assay [4]; 7.58 µM in assay [5]; 6.3 µM in assay [6]. Further, the TGI in [7] was determined as 29.5 µM; in [8] it was 34.2 µM; in [9], 7.3 µM; in assay [10], 8.63 µM.

`CCN(CC)c1ccc2nc3c4ccccc4c(=NC(=O)c4ccccc4-c4c5ccc(N(CC)CC)cc5[o+]c5cc(N(CC)CC)ccc45)cc-3oc2c1`: the GI50 in [1] was 3.14 µM; in assay [2] it was 1.88 µM; in assay [3] it was 2.23 µM; in assay [4], 1.69 µM; in assay [5] it was 3.23 µM; in [6], 0.85 µM. The GI50 in assay [7] is 3.52 µM; in [8], 2.29 µM; in assay [9] it was 1.88 µM; in [10] it was 1.46 µM. The TGI in [1] came to 21.9 µM; in assay [2], 6.13 µM; in assay [3], 12.2 µM; in [4], 4.49 µM; in assay [5], 11.9 µM; in assay [6], 6.26 µM. Further, the TGI in assay [7] is over 32.6 µM; in [8], 10.1 µM; in assay [9], over 22.4 µM; in [10], 3.4 µM.

For `N#CC(C#N)=Cc1ccc(-c2ccc(-c3nc4ccccc4o3)cc2)o1`, the GI50 in assay [1] is 60.4 µM; in assay [2] it was 27.2 µM; in assay [3], 29.9 µM; in assay [4], 16.6 µM; in assay [5], 27.1 µM; in [6] it was 66.7 µM. The GI50 in assay [7] is over 100 µM; in assay [8] it was 38.4 µM; in [9] it was 18.2 µM; in [10], over 100 µM. The concentration for total growth inhibition (TGI) is over 100 µM in [1]; 93.8 µM in assay [2]; over 100 µM in assay [3]; 44.8 µM in [4]; 52 µM in assay [5]; over 100 µM in assay [6]. Also, the TGI in assay [7] is over 100 µM; in assay [8] it was over 100 µM; in assay [9], 42.3 µM; in assay [10], over 100 µM.

Consider `O=[N+]([O-])c1ccc(-c2ccccc2)c([As](=O)(O)O)c1`, for which the GI50 in assay [1] was 6.92 µM; in assay [2] it was 18.9 µM; in assay [3] it was 22.6 µM; in assay [4], 8.15 µM; in [5], 28.4 µM; in [6] it was 10.4 µM. Further, the GI50 was 15.9 µM in assay [7], 28 µM in assay [8], 10.9 µM in [9] and 21.7 µM in assay [10]. The concentration for total growth inhibition (TGI) in assay [1] was 21.3 µM; in assay [2], 88.2 µM; in assay [3], over 100 µM; in assay [4] it was 46.9 µM; in assay [5], over 100 µM; in [6], 29.3 µM. The TGI in assay [7] was over 100 µM; in [8], over 100 µM; in assay [9], 25.4 µM; in [10] it was over 100 µM.

Turning to `C[N+]1=c2c3cccc4cccc(c(=O)n2CCC1)c43`, the TGI was 30.2 µM in [1]; 39.1 µM in assay [2]; 39.9 µM in [3]; 29.4 µM in [4]; 36.5 µM in assay [5]; 55.1 µM in assay [6]. Further, the TGI in [7] came to 65 µM; in [8], 37.7 µM; in assay [9], 43.6 µM; in [10] it was 32.9 µM.

Regarding `COc1cc2c3c(c1O)C1(C=CC(=O)C=C1)CC3N(C)CC2` (stereo not given), the TGI in assay [1] amounted to 7.21 µM; in assay [2], 31.5 µM; in assay [3], 38.4 µM; in assay [4] it was 9.28 µM; in assay [5], 36.3 µM; in [6], 22.9 µM. Besides, the TGI was 25.6 µM in [7], 18.3 µM in assay [8], 14.5 µM in assay [9] and 27.7 µM in assay [10].

For `N#C/C(=C\c1ccc(O)cc1O)C(N)=O`, the TGI in assay [1], in assay [2], in assay [3], in assay [4], in [5] and in assay [6] was over 100 µM in each case. Moreover, the TGI in [7], in assay [8], in assay [9] and in [10] was over 100 µM throughout.

For the molecule `C/C(=N\Nc1cccc(Cl)n1)c1ccccn1`, the GI50 in assay [1] was 0.508 µM; in assay [2], 1.28 µM; in assay [3], 0.51 µM; in assay [4], 0.492 µM; in assay [5], 0.819 µM; in assay [6], 0.379 µM. For the same molecule, the GI50 is 0.411 µM in assay [7], 0.482 µM in assay [8], 0.401 µM in assay [9] and 2.27 µM in assay [10]. Further, the TGI in [1] was over 40.3 µM; in [2], over 37.6 µM; in assay [3] it was over 100 µM; in assay [4], over 25 µM; in assay [5], over 100 µM; in assay [6] it was 13.3 µM. Moreover, the TGI in assay [7] is 18.6 µM; in [8], 8.33 µM; in assay [9] it was over 100 µM; in [10], 7.51 µM.

Turning to `CCC[CH2][Sn]1([CH2]CCC)[O]C(=O)c2cc(C)ccc2[O]1`, the GI50 is 0.0859 µM in [1]; 0.332 µM in [2]; 0.725 µM in [3]; 0.309 µM in assay [4]; 1.66 µM in assay [5]; 0.614 µM in assay [6]. In addition, the GI50 was 0.579 µM in assay [7], 1.54 µM in [8], 1.12 µM in assay [9] and 0.419 µM in assay [10]. In addition, the TGI in assay [1] turned out to be 0.232 µM; in assay [2], 1.29 µM; in [3] it was 2.05 µM; in assay [4], 1.13 µM; in assay [5], 3.04 µM; in assay [6], 1.91 µM. The TGI came out at 1.94 µM in [7], 2.87 µM in assay [8], 2.33 µM in [9] and 1.56 µM in [10].

Turning to `ClC1=C(Cl)C(Cl)=C(Cl)C1=Cc1ccc(Cl)cc1`, the GI50 in assay [1] is 0.23 µM; in assay [2], 0.796 µM; in assay [3], 0.36 µM; in assay [4], 0.233 µM; in assay [5], 0.705 µM; in [6] it was 0.309 µM. Also, the GI50 was 0.816 µM in assay [7], 0.726 µM in [8], 0.237 µM in assay [9] and 1.37 µM in assay [10]. Also, the TGI in [1] turned out to be 0.655 µM; in [2], 2.85 µM; in assay [3] it was 2.27 µM; in assay [4] it was 0.71 µM; in assay [5], 2.05 µM; in assay [6] it was 0.853 µM. Moreover, the TGI in assay [7] was determined as 3.08 µM; in [8] it was 2.18 µM; in [9], 0.638 µM; in assay [10] it was 3.3 µM.
